From patent US20100184703A1, “USE OF PEPTIDE DERIVATIVES FOR TREATING PATHOLOGIES RESULTING FROM ISCHEMIA” (CHIESI FARMACEUTICI S.p.A., priority 2007, published 2010)

Tested on: ANF, BNP, fibronectin, β-MHC, TNFR1, TNFR2, TNFα, caspase-2 mRNA
Assay: Quantitative RT-PCR of heart failure, fibrosis, hypertrophy and TNFα signaling markers after ischemia/reperfusion
Type: in vivo, rat
Settings: IR model
Procedure: In a second series of experiments, quantitative RT-PCR was performed to evaluate the level of expression of 2 markers of heart failure, Atrial Natriuretic Factor (ANF) and Brain Natriuretic Factor (BNP) as well as a marker of myocardial fibrosis, fibronectine, and myocardial hypertrophy, βMHC. […] B. mRNA expression levels of fibronectin a marker of fibrosis development, and β-Myosin Heavy Chain (β-MHC) a marker for hypertrophy development

[1] = increase in vehicle-injected animals

Substance: Etanercept
- mRNA expression level of TNFα [1]: not by Etanercept
- mRNA expression level of TNFα receptor 2 (TNFR2) [1]: not by Etanercept
- mRNA expression level of caspase-2 [1]: not by Etanercept
- mRNA expression level of fibronectin (marker of fibrosis development): could only prevent fibrosis development
- mRNA expression level of Atrial Natriuretic Factor (ANF) (marker of heart failure): significant increase
- mRNA expression level of brain natriuretic peptide (BNP) (marker of heart failure): significant increase
